IC50, AC50 and EC50 data for three compounds are collected here from ChEMBL document CHEMBL1201862, “PubChem BioAssay data set” (2004).

A word on the IC50: it is the point on the concentration scale where inhibition reaches its midpoint. The term AC50 denotes the concentration at which the activity in the assay is half-maximal. The EC50 is the midpoint of the concentration-response curve.

Assay [1] deals with HEK293. Kind of assay: cells. The conditions noted are these: Homo sapiens. It counts as functional, cell-based.
Assay [2] addresses T1, Microphthalmia-associated transcription factor (Homo sapiens, UniProt O75030).
T1 sequence (O75030 whole entry): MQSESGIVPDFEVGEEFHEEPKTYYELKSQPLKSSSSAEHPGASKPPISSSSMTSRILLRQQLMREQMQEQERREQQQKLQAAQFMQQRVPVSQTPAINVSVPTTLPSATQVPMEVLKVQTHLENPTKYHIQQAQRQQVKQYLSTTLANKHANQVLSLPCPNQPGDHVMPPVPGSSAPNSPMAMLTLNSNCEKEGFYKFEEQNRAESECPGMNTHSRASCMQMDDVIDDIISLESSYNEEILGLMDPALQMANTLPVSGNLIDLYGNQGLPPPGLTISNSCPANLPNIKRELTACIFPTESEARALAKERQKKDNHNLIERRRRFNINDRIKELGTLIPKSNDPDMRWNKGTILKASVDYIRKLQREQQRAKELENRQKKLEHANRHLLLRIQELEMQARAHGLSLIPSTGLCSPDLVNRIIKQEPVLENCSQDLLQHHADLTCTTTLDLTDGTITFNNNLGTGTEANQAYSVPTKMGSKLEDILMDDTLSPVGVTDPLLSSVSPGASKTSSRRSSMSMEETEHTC
The assay can be described thus: reducers of TRPM1 reporter luminescence, concentration series – cell-based, SK-MEL-5, cherry-picked, set 3, MITF inhibitor project, dose response (AID 493073).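 Also: SK-MEL-5 melanoma cells with luciferase driven by the MITF target TRPM1 promoter.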 It is filed as functional.

Assay [3] deals with Nucleotide-binding oligomerization domain-containing protein 2 (Homo sapiens, UniProt Q9HC29). Kind of assay: inhibition of NOD2-driven NF-kB reporter – cell-based, luminescence, uHTS, HEK293 (AID 1566). It is filed as functional.
The target of another assay is T2, Protein RecA (Mycobacterium tuberculosis, UniProt P9WHJ3).
T2 sequence (P9WHJ3 whole entry): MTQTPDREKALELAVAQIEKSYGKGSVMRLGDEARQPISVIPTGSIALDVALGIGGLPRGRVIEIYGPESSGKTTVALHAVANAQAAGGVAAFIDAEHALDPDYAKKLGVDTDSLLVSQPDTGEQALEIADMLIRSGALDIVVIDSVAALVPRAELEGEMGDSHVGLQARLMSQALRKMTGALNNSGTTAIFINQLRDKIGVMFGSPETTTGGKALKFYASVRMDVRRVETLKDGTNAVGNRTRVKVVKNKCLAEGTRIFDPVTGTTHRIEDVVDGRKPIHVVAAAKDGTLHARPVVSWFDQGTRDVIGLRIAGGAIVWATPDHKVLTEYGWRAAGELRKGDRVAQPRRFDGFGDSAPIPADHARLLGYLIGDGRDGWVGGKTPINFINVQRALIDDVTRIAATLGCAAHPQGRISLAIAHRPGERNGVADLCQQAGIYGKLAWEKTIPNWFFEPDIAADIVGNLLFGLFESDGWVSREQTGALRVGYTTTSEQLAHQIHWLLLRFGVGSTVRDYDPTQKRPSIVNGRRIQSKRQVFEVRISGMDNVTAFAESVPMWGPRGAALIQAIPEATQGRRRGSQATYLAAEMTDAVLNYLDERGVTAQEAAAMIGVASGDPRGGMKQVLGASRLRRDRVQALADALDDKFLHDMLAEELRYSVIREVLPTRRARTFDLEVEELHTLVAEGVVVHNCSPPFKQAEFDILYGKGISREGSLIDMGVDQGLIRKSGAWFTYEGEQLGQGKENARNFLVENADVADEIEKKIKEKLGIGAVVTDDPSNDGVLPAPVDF
The assay can be described thus: Fluorescence Cell-Free Homogeneous Dose Retest to Identify Inhibitors of RecA-Intein Splicing Activity. [Related pubchem assays (depositor defined):AID2097, AID2223, AID489010, AID492950]. It is filed as functional.

Assay [4] has as its target T3, Replicative DNA helicase DnaB (Mycobacterium tuberculosis, UniProt P9WMR3).
T3 sequence (P9WMR3 whole entry): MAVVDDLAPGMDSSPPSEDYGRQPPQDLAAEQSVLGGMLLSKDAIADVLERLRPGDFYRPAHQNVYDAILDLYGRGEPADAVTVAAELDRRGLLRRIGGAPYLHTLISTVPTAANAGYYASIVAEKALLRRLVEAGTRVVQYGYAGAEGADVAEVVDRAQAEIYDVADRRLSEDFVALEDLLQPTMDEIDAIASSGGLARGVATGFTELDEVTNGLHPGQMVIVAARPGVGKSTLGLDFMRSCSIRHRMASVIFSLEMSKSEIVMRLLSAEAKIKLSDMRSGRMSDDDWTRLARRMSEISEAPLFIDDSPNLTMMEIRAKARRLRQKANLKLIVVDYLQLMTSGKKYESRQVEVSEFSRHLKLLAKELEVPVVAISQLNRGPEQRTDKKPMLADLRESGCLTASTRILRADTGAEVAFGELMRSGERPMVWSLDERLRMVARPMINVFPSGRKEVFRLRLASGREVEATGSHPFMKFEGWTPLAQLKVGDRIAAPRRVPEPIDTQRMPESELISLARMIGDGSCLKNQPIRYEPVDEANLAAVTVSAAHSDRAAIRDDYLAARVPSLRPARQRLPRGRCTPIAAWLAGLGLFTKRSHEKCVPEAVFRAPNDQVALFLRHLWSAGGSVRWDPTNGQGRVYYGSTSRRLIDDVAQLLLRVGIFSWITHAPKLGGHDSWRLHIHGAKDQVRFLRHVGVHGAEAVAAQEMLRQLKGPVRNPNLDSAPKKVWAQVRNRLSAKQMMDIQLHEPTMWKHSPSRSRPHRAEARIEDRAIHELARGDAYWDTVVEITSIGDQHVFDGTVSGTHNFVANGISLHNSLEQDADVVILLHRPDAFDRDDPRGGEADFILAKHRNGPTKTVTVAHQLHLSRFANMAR
The assay can be described thus: DnaB intein splicing inhibitors, dose response, biochemical, cell-free fluorescence (AID 449749). It is filed as functional.

Assay [5] relates to BJ. Kind of assay: BJ-TERT-LT-ST fibroblast viability loss – cell-based, RAS-independent, luminescence, dose response (AID 1935).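 Also: BJ fibroblasts immortalized with TERT plus LT and ST oncogenes.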 It counts as functional. The conditions noted are these: Homo sapiens.
The subject of assay [6] is HEK293. Kind of assay: NOD2 signaling inhibitors in MDP-stimulated cells, cell-based, uHTS, luminescence (AID 2001). It is filed as functional. The following applies: Homo sapiens.
Assay [7] relates to BJ. The assay can be described thus: cells. The following applies: Homo sapiens. It counts as functional, cell-based.
Assay [8] concerns HEK293. Kind of assay: inhibition of NOD1-driven NF-kB reporter – cell-based, luminescence, uHTS, primary screen (AID 1578). It is filed as functional. The following applies: Homo sapiens.
For assay [9], the system named is HEK293. Kind of assay: cells. It counts as functional, cell-based. The conditions noted are these: Homo sapiens. The source holds these as a separate data set.
The subject of assay [10] is HEK293. Kind of assay: cells. The conditions noted are these: Homo sapiens. It is filed as functional, cell-based. The source holds these as a separate data set.
The nature of assay [11]: DRD fibroblast viability loss – cell-based, non-viral oncogenic, luminescence, dose response (AID 1934). It is filed as functional. The conditions noted are these: Homo sapiens.
Assay [12] has as its system BJ. The assay can be described thus: BJ-TERT fibroblast viability loss – cell-based, RAS-independent, luminescence, dose response (AID 1933). The conditions noted are these: Homo sapiens. It counts as functional.
The target of assay [13] is Glyceraldehyde-3-phosphate dehydrogenase (Homo sapiens, UniProt P04406).
Assay [14] deals with T4, Alkaline phosphatase, tissue-nonspecific isozyme (Homo sapiens, UniProt P05186).
T4 sequence (P05186 whole entry): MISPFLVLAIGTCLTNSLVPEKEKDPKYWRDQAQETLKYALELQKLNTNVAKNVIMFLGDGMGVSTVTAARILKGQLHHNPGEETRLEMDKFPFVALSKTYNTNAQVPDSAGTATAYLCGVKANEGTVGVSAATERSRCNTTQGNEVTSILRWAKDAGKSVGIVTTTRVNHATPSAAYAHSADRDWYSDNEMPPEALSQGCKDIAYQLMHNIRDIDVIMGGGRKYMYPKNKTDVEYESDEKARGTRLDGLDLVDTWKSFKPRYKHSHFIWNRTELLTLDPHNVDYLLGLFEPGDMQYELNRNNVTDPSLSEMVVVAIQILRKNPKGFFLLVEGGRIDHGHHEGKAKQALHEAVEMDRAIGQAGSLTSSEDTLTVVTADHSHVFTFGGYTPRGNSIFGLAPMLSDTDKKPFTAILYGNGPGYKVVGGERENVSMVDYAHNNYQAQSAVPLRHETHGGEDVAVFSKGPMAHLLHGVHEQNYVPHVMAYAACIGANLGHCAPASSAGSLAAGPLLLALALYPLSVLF
Kind of assay: potency against alkaline phosphatase TNAP – biochemical, luminescent, dose response, SAR follow-up (AID 1056).

Molecules are shown by their SMILES. Activity calls are given as the source filed them.

Sequence of Nucleotide-binding oligomerization domain-containing protein 2 (Q9HC29 whole entry, the tested form may be a part): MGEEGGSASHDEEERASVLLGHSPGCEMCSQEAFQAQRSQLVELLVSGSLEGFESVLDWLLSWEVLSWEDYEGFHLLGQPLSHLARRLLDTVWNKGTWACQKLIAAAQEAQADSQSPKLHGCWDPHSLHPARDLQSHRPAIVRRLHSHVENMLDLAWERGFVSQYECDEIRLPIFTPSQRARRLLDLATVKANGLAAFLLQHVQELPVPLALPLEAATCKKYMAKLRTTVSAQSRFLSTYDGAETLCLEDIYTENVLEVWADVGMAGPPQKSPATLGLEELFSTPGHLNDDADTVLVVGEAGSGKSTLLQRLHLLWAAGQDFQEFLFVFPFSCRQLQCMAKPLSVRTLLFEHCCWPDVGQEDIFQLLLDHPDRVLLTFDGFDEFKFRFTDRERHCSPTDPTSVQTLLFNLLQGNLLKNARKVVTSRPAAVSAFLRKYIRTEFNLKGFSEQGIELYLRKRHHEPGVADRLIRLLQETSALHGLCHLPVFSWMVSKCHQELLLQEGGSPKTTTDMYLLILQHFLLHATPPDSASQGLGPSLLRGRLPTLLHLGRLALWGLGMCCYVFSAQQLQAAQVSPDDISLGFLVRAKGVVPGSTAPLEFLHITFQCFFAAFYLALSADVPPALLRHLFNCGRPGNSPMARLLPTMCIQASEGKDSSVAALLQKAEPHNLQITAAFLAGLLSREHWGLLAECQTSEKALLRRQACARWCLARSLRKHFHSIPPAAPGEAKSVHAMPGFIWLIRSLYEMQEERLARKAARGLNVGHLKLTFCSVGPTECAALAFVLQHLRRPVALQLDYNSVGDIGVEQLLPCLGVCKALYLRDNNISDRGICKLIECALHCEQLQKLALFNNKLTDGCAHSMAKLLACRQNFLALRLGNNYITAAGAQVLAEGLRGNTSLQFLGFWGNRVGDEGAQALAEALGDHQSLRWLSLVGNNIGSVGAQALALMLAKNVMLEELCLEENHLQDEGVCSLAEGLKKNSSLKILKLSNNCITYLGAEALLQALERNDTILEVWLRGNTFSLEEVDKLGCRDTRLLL
Sequence of Glyceraldehyde-3-phosphate dehydrogenase (P04406 whole entry): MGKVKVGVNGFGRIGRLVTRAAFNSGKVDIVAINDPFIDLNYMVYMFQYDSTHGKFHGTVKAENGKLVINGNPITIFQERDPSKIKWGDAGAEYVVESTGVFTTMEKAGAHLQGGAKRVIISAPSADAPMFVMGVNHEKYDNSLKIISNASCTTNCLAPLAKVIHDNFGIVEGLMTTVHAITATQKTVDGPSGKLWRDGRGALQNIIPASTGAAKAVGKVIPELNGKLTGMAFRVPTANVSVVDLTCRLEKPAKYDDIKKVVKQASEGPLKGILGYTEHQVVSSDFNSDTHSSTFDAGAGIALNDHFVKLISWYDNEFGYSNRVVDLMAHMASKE

As to `O=C(CCl)Nc1cccc(S(=O)(=O)N2CCCCCC2)c1`, the IC50 was 4.83 µM (active) with HEK293 [1], 8.19 µM (active) in the assay on HEK293 [6], > 20 µM (inactive) in the assay on HEK293 [9] and > 20 µM (inactive) in the assay on HEK293 [10]. Moreover, the AC50 in assay [2] was 11.8 µM (active); in assay [4], 23.5 µM (active). For the same compound, the EC50 was 19.6 µM (active) in assay [3]; 22.6 µM (active) on Protein RecA; 10.7 µM (active) with BJ [5]; 22 µM (active) in the assay on BJ [7]; 10.1 µM (active) with HEK293 [8]; 9.38 µM (active) in assay [11]. Besides, in the assay with BJ [12], the EC50 was 4.64 µM (inconclusive).
As for `COc1ccc(C(C)C)cc1S(=O)(=O)Nc1cccnc1`, the concentration for half-maximal inhibition (IC50) in assay [13] is > 100 µM (not active); in [14], > 100 µM (inactive).
As to `COCCN(Cc1ccccc1)C(=O)c1cc(-c2ccc(OC)c(OC)c2)nc2ccccc12`, the IC50 was > 20 µM (inactive) in the assay on HEK293 [1], > 20 µM (inactive) with HEK293 [6], 16.3 µM (active) in the assay on HEK293 [9] and > 20 µM (inactive) in the assay on HEK293 [10]. In addition, the EC50 (in [3]; with HEK293 [8]) was > 20 µM (inactive) throughout.
